Source: publication PMC10048804, “Coumarin-Based Compounds as Inhibitors of Tyrosinase/Tyrosine Hydroxylase: Synthesis, Kinetic Studies, and In Silico Approaches” (International Journal of Molecular Sciences, 2023)
“Also recorded” adds a separate entry of the source. Where two headings read alike, the source gives them in different places.

Tests used:
mushroom tyrosinase [1] = conditions: ref [39],[40],[41]; cited from earlier work
B16F10 cells = conditions: ref [39],[40],[41]; cited from earlier work
[2] = test system: cellular tyrosinase in B16F10 cells; conditions: ref [39],[40],[41]; cited from earlier work
tyrosinase [3] = conditions: cited from earlier work
intracellular tyrosinase = test system: intracellular tyrosinase; set-up: method as in PMID 35063859; conditions: ref [45], cited from earlier work
production of melanin = test system: production of melanin; set-up: method as in PMID 35063859; conditions: ref [45]; cited from earlier work
mushroom tyrosinase [4] = target: T1, mushroom tyrosinase (Agaricus bisporus, UniProt C7FF04); assay: Kinetic analysis of the inhibition of tyrosinase (Lineweaver-Burk plots); assay type: biochemical; set-up: purchased Sigma-Aldrich; conditions: L-DOPA substrate
Description: The mechanism for tyrosinase inhibition of the tested compounds was determined from Lineweaver–Burk double reciprocal plots. The plot provides a useful graphical method for analysis of the Michaelis–Menten equations used to determine the Km values for possible competitive, uncompetitive, non-competitive, and mixed mechanisms of inhibition. All Lineweaver–Burk plots can be found in the Supplementary Information. As can be easily noticed, the majority of tested compounds are characterized by the mixed mode of inhibition (Table 2). It is a type of enzyme inhibition in which the inhibitor may bind to the enzyme whether or not the enzyme has already bound to the substrate.
A series of experiments was performed to determine the inhibition kinetics of the tested compounds following the already reported method. The inhibitor concentrations for the tested compounds were 0.05 and 0.1 mM. The substrate L-DOPA concentration was between 0.1 and 0.25 mM in all kinetic studies, but for the FN-06 and FN-27 compounds, concentrations between 0.15 and 0.3 mM were used. Maximal initial velocity was determined from the initial linear portion of absorbance up to ten minutes after the addition of the enzyme. The inhibition type of the enzyme, Michaelis constant (Km), and maximal velocity (Vmax) were determined using Lineweaver–Burk plots of the inverse of velocities (1/V) versus the inverse of substrate concentration 1/[L-DOPA] mM^−1.
Target sequence in this assay (C7FF04 1-392 limits assumed): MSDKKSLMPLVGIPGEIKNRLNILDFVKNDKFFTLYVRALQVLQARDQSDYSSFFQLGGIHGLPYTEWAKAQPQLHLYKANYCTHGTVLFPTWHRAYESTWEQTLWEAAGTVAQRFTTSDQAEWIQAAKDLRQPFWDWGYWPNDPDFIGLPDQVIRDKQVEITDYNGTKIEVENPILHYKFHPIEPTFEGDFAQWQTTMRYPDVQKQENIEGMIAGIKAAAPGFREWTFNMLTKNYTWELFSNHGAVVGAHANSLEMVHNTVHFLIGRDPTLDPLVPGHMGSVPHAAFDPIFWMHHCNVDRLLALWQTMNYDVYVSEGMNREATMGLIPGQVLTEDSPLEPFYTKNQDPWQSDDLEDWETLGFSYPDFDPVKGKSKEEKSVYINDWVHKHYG

tyrosinase [5] = target: T2, tyrosinase (Agaricus bisporus, UniProt C7FF04); assay: UV-Vis spectra of L-DOPA oxidation by tyrosinase in absence and presence of inhibitor; assay type: biochemical, mushroom; conditions: after 30 min, versus L-DOPA with tyrosinase
T2 construct: purchased Sigma-Aldrich
Description: The remaining compound FN-40 is a competitive inhibitor, which binds to the enzyme at its active site, preventing the binding of the substrate to the enzyme. […] To observe the effect of the oxidation of L-DOPA by tyrosinase in the absence and presence of the tested compounds, the UV-Vis spectra were determined. During L-DOPA oxidation by tyrosinase, a characteristic signal at 475 nm is observed in the UV-Vis spectrum, corresponding to the formation of dopachrome.

mushroom tyrosinase [6] = target: T1, mushroom tyrosinase; assay: Mushroom tyrosinase inhibition assay (L-DOPA substrate, dopachrome at 475 nm); assay type: biochemical
Description: All compounds were tested for their inhibitory effects on mushroom tyrosinase using L-DOPA as substrate. In general, the results were compared with standard tyrosinase inhibitors, such as kojic acid and ascorbic acid. […]. The mushroom tyrosinase (Sigma-Aldrich) inhibition was performed following previously reported methods. All assays were carried out with solutions containing phosphate buffer (50 mM, pH 6.8), L-DOPA (0.17 mM), EDTA (0.022 mM), tyrosinase (50–100 units), and varying concentrations of compounds, and were performed in triplicate at room temperature. The inhibitor solutions were prepared in DMSO with an initial concentration of 1 mM. Different aliquots were added to the solution containing buffer, L-DOPA, and EDTA, the enzyme being added in the end. The formation of dopachrome was determined by monitoring the absorbance at 475 nm with a T60U spectrophotometer (PG Instruments) equipped with quartz cells of 1 cm path length. Kojic acid and ascorbic acid were used as reference inhibitors with an initial concentration of 1 mM. The IC50 values were calculated from the equation generated with an exponential fit of the experimental data. […]
Target sequence in this assay (C7FF04 2-392): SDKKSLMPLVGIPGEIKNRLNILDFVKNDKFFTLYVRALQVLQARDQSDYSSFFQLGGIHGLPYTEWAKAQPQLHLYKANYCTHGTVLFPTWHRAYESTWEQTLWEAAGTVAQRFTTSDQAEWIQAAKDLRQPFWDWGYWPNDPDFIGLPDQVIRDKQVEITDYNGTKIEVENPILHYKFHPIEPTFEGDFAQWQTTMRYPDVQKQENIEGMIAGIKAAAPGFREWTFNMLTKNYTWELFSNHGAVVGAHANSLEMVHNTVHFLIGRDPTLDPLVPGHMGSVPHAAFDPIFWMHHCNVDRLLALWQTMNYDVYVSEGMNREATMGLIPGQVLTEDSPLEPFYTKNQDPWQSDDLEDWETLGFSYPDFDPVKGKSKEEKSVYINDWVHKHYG

T2 sequence (C7FF04 1-392 limits assumed): as the sequence (C7FF04 1-392 limits assumed) above

Molecule | Inhibitory Mechanism (mushroom tyrosinase [4]; compound at 0.1 mM) | melting point | further results
O=c1oc2cc(O)cc(O)c2cc1-c1cccs1 [Compound 1] | – | – | IC50 (mushroom tyrosinase [1]): 0.15 ± 0.028 µM
O=c1oc2cc(O)cc(O)c2cc1-c1cc(Br)cs1 [Compound 2] | – | – | melanin production (B16F10 cells): able to inhibit; cellular tyrosinase activity [2]: able to inhibit; IC50 (mushroom tyrosinase [1]): 0.38 ± 0.084 µM
O=c1oc2cc(O)cc(O)c2cc1-c1ccc(Br)cc1 [Compound 3] | – | – | melanin production (B16F10 cells): able to inhibit; cellular tyrosinase activity [2]: able to inhibit; IC50 (mushroom tyrosinase [1]): 1.05 ± 0.056 µM
COc1cc(C2CC(c3cc4ccccc4oc3=O)=NN2c2nc(-c3ccc(Br)cc3)cs2)ccc1OCc1ccccc1 (stereo not shown) [Compound 5] | – | – | IC50 (tyrosinase [3]; ref [43]): 0.00458 ± 0.00022 µM
CC(C)=CCOc1c2occc2cc2ccc(=O)oc12 [Compound 6, marmelosin] | – | – | IC50 (tyrosinase [3]; ref [44]): 20.3 ± 1.26 µM
CC(C)=CC(=O)O[C@H]1Cc2cc3ccc(=O)oc3cc2OC1(C)C [Compound 7, decursin] | – | – | %Tyrosine inh. (intracellular tyrosinase; at 30 μM): 59.8 ± 0.6%; intracellular activity of tyrosinase (intracellular tyrosinase): decreases; production of melanin (production of melanin): reduces
CC(=O)c1cc2ccc(O)cc2oc1=O [FN-06, 3. -Acetyl-7-hydroxy-2H-chromen-2-one] | mixed inhibitors | – | –
COc1cccc2cc(C(C)=O)c(=O)oc12 [FN-07, 3. -Acetyl-8-methoxy-2H-chromen-2-one] | Mixed | – | –
CN(C)c1ccc(/C=C/C(=O)c2cc3ccccc3oc2=O)cc1 [FN-10, 3. -((E)-3-(4-(Dimethylamino)phenyl)acryloyl)-2H-chromen-2-one] | – | 111 to 112 °C | Inhibitory Mechanism (mushroom tyrosinase [4]; compound at 0.05 mM): mixed inhibitors
C/C(=N\NC(N)=O)c1cc2ccc(O)cc2oc1=O [FN-17, (1E)-1-(1-(7-Hydroxy-2-oxo-2H-chromen-3-yl)ethylidene)semicarbazide] | Mixed | 226 to 229 °C | –
C/C(=N\NC(N)=S)c1cc2ccc(O)cc2oc1=O [FN-19, (1E)-1-(1-(7-Hydroxy-2-oxo-2H-chromen-3-yl)ethylidene)thiosemicarbazide] | mixed inhibitor; also recorded: mixed mode | – | signal intensity at 475 nm (dopachrome formation) (tyrosinase [5]): significant reduction; also recorded: significantly reduce
COc1cccc2cc(/C(C)=N/NC(N)=O)c(=O)oc12 [FN-25, (1E)-1-(1-(8-Methoxy-2-oxo-2H-chromen-3-yl)ethylidene)semicarbazide] | Mixed | 240 to 242 °C | –
COc1cccc2cc(/C(C)=N/NC(N)=S)c(=O)oc12 [FN-27, (1E)-1-(1-(8-Methoxy-2-oxo-2H-chromen-3-yl)ethylidene)thiosemicarbazide] | mixed inhibitors | – | –
COc1cccc2cc(/C(C)=N/NC(=O)c3ccncc3)c(=O)oc12 [FN-29, (13E)-N’-(1-(8-Methoxy-2-oxo-2H-chromen-3-yl)ethylidene)isonicotinohydrazide] | Mixed | 202 to 206 °C | solubility in the tyrosinase assay (mushroom tyrosinase [6]; in words): not soluble
CC(=O)c1cc2cc(Br)ccc2oc1=O [FN-40] | Competitive | – | –
CC(=O)c1cc2cc([N+](=O)[O-])ccc2oc1=O [MP-03, 3. -Acetyl-6-nitro-2H-chromen-2-one] | Uncompetitive | 201 to 203 °C | –
CC(=O)c1cc2ccc(C)cc2oc1=O [MP-04, 3. -Acetyl-7-methyl-2H-chromen-2-one] | Noncompetitive | 157 to 159 °C | –
CC(=O)c1cc2ccccc2oc1=O [MP-05, 3. -Acetyl-2H-chromen-2-one] | Mixed | – | –
(E)-N’-(4-(dimethylamino)benzylidene)-2-methylene-2H-chromene-3-carbohydrazide [FN-11] | Mixed | – | IC50 (mushroom tyrosinase [6]; mushroom tyrosinase, L-DOPA 0.17 mM as substrate, pH 6.8, triplicate, room temperature): 159 µM
